Test results taken from patent US8535740B2, “Compositions from Nigella sativa” (priority 2002, dated 2013).
In brackets after ≈: the same amount, converted by molar mass. Marks after values point to notes of the source that are not given here.

Tests used:
[1] = system: 3T3-L1 adipocytes; experiment: Lipolysis (glycerol / free fatty acid release) in 3T3-L1 adipocytes; type: cell-based, murine; details: forskolin 82 μg/mL, test materials 5 μg/mL (FIG. 9)
Procedure: Cell culture and treatment-Culture and treatment of 3T3-L1 adipocytes and C2C12 myocytes was as described in Example 5. Concentrations of the forskolin positive control and test materials are listed in FIG. 9 for adipocytes and FIG. 10 for myocytes. Glycerol assay-Free fatty acid release from 3T3-L1 adipocytes or C2C12 myocytes was quantified by measuring glycerol secretion into the medium. Glycerol was measured spectrophotometrically using the Free Glycerol Determination Kit ([…], Sigma) and an EL 312e Microplate BIO-KINETICS spectrophotometer (BioTek, Winooski, Vt.). Data analysis-Glycerol release from adipocytes and myocytes was expressed, respectively, as the percent increase in free fatty acid secretion (FIG. 9) and relative glycerol content (glycerol index FIG. 10) ±95% confidence intervals of eight observations for one of three representative experiments.

[2] = system: LPS-stimulated macrophages; details: published results, El-Mahmoudy 2002; cited from earlier work
[3] = system: IL-6 secretion in 3T3-L1 adipocytes; experiment: IL-6 secretion in t10-CLA-stimulated 3T3-L1 adipocytes; type: cell-based, murine
Procedure: Treatment—Test materials were added four hours prior to the addition of t10-CLA at a concentration of 50 μM. Following overnight incubation, the supernatant media were sampled for determination of IL-6 and adiponectin. Interleukin-6 assay—The IL-6 secreted into the medium in response to […] stimulation was quantified using the Quantikine® Mouse IL-6 Immunoassay kit with no modifications (R&D Systems, Minneapolis, Minn.). […] All supernatant media samples were diluted 1:30 for quantification. Statistical Calculations and Interpretation—Test materials and were assayed in duplicate, while solvent controls were replicated eight times. IL-6 and adiponectin secretion were represented relative to the IL-6 and adiponectin secretion of the t10-CLA only controls as the IL-6 and adiponectin index and differences among the means were analyzed by the student's t-test assuming a five percent probability of a type I error (Excel; Microsoft, Redmond, Wash.).

[4] = DPPH free radical scavenging (antioxidant) activity; type: biochemical; details: computed on basis of TQ content
Procedure: Methodology—Antioxidant activity was determined utilizing 2,2-diphenyl-1-picrylhydrazyl (DPPH), which is a stable radical. […] The color turns from purple to yellow as the molar absorption of the DPPH radical at 550 nm is reduced when the odd electron of DPPH radical becomes paired with hydrogen from a free radical scavenging antioxidant to form the reduced DPPH-H. The test samples were dissolved in methanol containing 1% dimethyl sulfoxide and added to microtiter wells in 100 μL aliquots to 100 μL of a 100 μM DPPH solution in methanol. Readings were taken at 10, 30 and 60 minutes following the addition of the test material. Percent inhibition of the DPPH radical by the test material was computed relative to the inhibition of the DPPH radical by the vitamin E analog trolox and tabulated as μmol trolox/g test material.

[5] = system: iNOS-mediated NO biosynthesis in 3T3-L1 adipocytes; experiment: LTI cytokine-stimulated NO biosynthesis in 3T3-L1 adipocytes; type: cell-based, murine; details: Mus musculus, value computed on the basis of TQ content, LPS/TNFα/IFγ stimulation 20 hours, (95% confidence interval), read-out: Median Inhibitory Concentration for iNOS-mediated NO biosynthesis, 3T3-L Adipocytes
Procedure: Cell culture and treatment-The murine fibroblast cell line 3T3-L1 was purchased from the American Type Culture Collection (Manassas, Va.) and sub-cultured according to instructions from the supplier. Prior to experiments, cells were cultured in DMEM containing 10% FBS-HI added 50 units penicillin/ml and 50 μg streptomycin/ml, and maintained in log phase prior to experimental setup. Cells were grown in a 5% CO2 humidified incubator at 37° C. Components of the pre-confluent medium included: (1) 10% FBS/DMEM (Fetal Bovine Serum/Dulbecco's Modified Eagle's Medium) containing 4.5 g glucose/L; (2) 50 U/ml penicillin; and (3) 50 μg/ml streptomycin. Growth medium was made by adding 50 ml of heat inactivated FBS and 5 ml of penicillin/streptomycin to 500 ml DMEM. This medium was stored at 4° C. Before use, the medium was warmed to 37° C. in a water bath. […] cells were seeded at an initial density of 6×10^4 cells/cm^2 in 24-well plates. […] Determination of nitrite in waters by microplate fluorescence spectroscopy and HPLC with fluorescence detection. […] After a reaction time of 30 minutes at ambient temperature, the fluorescence was read with 485 nm excitation filter and a 530 nm emission filter in a Packard Fluorocount spectrofluorometer (Model #BF10000, Meridan, Conn.). […] Quantitative analysis of dose-effect relationships: the combined effects of multiple drugs or enzyme inhibitors.

In the case of `CC1=CC(=O)C(C(C)C)=CC1=O` [Thymoquinone (Sigma), thymoquinone], the “free fatty acid release in adipocytes” value [1] is given as “induced free fatty acid release”, the “IC50 for NO inhibition in LPS-stimulated macrophages” value [2] is given as 1.4 to 2.8 µg/mL and the “effect on IL-6 secretion in t10-CLA-stimulated adipocytes” value ([3]; concentrations of Table 8) is given as “inhibited IL-6 secretion”. For the same molecule, the “IL-6 Index” value ([3]; relative to t10-CLA only control (100), 50 μM t10-CLA, overnight, each material at its tabulated concentration) was 75*, the “DPPH Reducing Activity” value [4] was 45.2 μmol Trolox/g TQ and the IC50 [5] was 1.9 µg/mL (≈ 11.6 µM).
